In patent US20050053575A1, “Antigenic product displaying multiple copies of an epitope of a deposit-forming polypeptide involved in plaque-forming diseases and methods of using same” (Ramot At Tel Aviv University Ltd, priority 2001, published 2005):
No end group written: not given here.

How the values were obtained:
[1] = test system: β-amyloid peptide 1-16 (EFRH-epitope); test: Immunization of Balb/C mice; serum Ig titers by ELISA against the EFRH-epitope (β-amyloid peptide 1-16); format: in vivo; conditions: i.p., filamentous phage as adjuvant, five injections; FIG. 10
Protocol: Four mice (named A, B, C, D) were immunized at two week intervals with 100 μg of MAP-[…] (SEQ ID NO:1)+adjuvant (either Complete Freund's or Incomplete Freund's adjuvant) by intraperitoneal injection, and two mice were immunized with H2O+adjuvant as a negative control. All mice were 8 week old female mice.
In experiments of antibody binding to β-amyloid peptide 1-16, 100 ng/well biotinylated β-amyloid peptides 1-16 were bound to streptavidin-coated microtiter plates for ½ h at room temperature. ELISA plates were previously coated with streptavidin for 16 h at 4° C. after washing, bound antibodies to β-peptide were detected by incubation with horseradish peroxidase-conjugated antibodies, as previously described in Frenkel et al. (1999). The Ig type was measured with rabit anti-mouse IgG and anti-mouse IgM labeled with horseradish peroxidase.
Two female mice 8 weeks old (named A and B) were immunized at approximately two week intervals with 200 μg of MAP-(EFRH)2+filamentous phage as adjuvant by intraperitoneal injection.
Two female mice 8 weeks old (named G and H) were immunized at approximately two week intervals with the streptavidin and biotinylated MAP-[…] (SEQ ID NO:1) complex (100 μg of MAP-[…] (SEQ ID NO:1) per mouse) by intraperitoneal injection without adjuvant.

[2] = test system: serum antibody raised against f88-EFRH; test: Competitive inhibition by peptides within βAP of serum antibody raised against f88-EFRH (ELISA); format: binding; conditions: Nd = IC50 which cannot be detected by ELISA, read-out: Competitive inhibition of MICE SERUM antibody (IC50)
Source text: The antibodies resulting from EFRH (SEQ ID NO:5) phage immunization are similar regarding their immunological properties to antibodies raised by direct injection with whole β-amyloid (Table 1). […] The high immunogenicity of filamentous phages enables the raising of antibodies against self-antigens.

[3] = test system: amyloid anti-aggregating antibody; conditions: Frenkel et al. 1998; ELISA; Nd = IC50 which cannot be detected by ELISA; read-out: Competitive inhibition of anti-aggregating antibody (IC50); cited from earlier work

Row | Substance | IC50 [2] [µM] | Immune response (serum IgG titers) [1] | IC50 [3] [µM]
1 | MAP-(EFRH)2: octavalent MAP carrying TyrGluPheArgHisTyrGluPheArgHis (SEQ ID NO:4), two EFRH epitopes per peptide (YEFRHYEFRH; also: octavalent lysine-core MAP) |  | strong immune response | 
2 | DAEFRHD [peptide, residues 1-7 of AβP] | 5 |  | 0.9
3 | DAEFRHDSG | 5 |  | 1
4 | FRH: peptide, residues 4-6 of AβP (Amyloid-beta protein 40; UniProt P05067 675-677, looked up, fragment) | ~1000 |  | 3000

Second part, led by results:

Row | IC50 [2] [µM] | Substance | Immune response (serum IgG titers) [1] | IC50 [3] [µM]
5 | 3 | βAP(1-40): full length β-amyloid peptide (1-40) |  | 0.8
6 | 3 | DAEFRH [peptide, residues 1-6 of AβP] |  | 0.8
